In patent publication EP4685142A1, “TRIAZINE COMPOUND AND USE THEREOF” (Chengdu Zenitar Biomedical Technology Co., Ltd., priority 2023, dated 2024):
Read-outs that look alike come from different tables or passages of the source.

Columns and labels:
LPS-induced mice = assay: LPS-induced mouse model, survival; assay type: in vivo, Balb/c mice; conditions: for 72h Survival rate: 1 h before 10 mg/kg LPS i.p.
[1] = test system: IL-1β in human PBMC cells; assay: Inhibitory activity on IL-1β in human PBMC cells (LPS + Nigericin, ELISA); assay type: cell-based; conditions: human PBMC, LPS 1 µg/mL 3 h, drug 40 min, Nigericin 10 µM 40 min, IL-1β ELISA; read-out: IC50
Protocol: 2. Determination of inhibitory activity of compounds on IL-1β in human PBMC cells
Human peripheral blood mononuclear cells (PBMCs) were taken and cultured overnight in RPMI 1640 culture medium containing 10% FBS and antibiotics before stimulation. On the second day, the culture medium was replaced with a serum-reduced culture medium, the grown cells were stimulated for 3 h with LPS at a working concentration of 1 µg/mL, stimulated for 40 min with a drug, and then stimulated for 40 min with Nigericin at a concentration of 10 µM, the cell supernatant was harvested, and the yield of IL-1β was detected by ELISA.
The experimental results are shown in Table 3: Table 3 Inhibitory effect of compounds on IL-1β in PBMC cells

[2] = target: T1, hERG potassium ion channel (Homo sapiens, UniProt Q12809); assay: Inhibition of hERG potassium ion channel (CHO cells stably expressing hERG, Qpatch)
Protocol: (§1) Inhibition experiment of compounds on hERG potassium ion channel
(§2) Cell culture and treatment: CHO cells stably expressing hERG were cultured in cell culture flasks and incubated in a 5% CO2 incubator at 37°C. When a cell density reached 60%-80%, the cell culture medium was aspirated, washed once with PBS, and then digested with Detachin. After digestion, the grown cells were neutralized in the cell culture medium, and then centrifuged, the supernatant was aspirated, the cell culture medium was added again to resuspend the grown cells, and the cell density was adjusted to 2-5×10^6 cells/mL for later use.
(§3) Compound preparation: the compound stock solution was diluted in 100% DMSO, that is, 10 µL compound stock solution was serially diluted in 20 µL DMSO by 3 folds to obtain six concentrations. Six concentrations of the compound (4 µL for each concentration) were diluted in 396 µL extracellular fluid by 100 folds to obtain six intermediate concentrations. Six intermediate concentrations of the compound (80 µL for each concentration) were diluted in 320 µL extracellular fluid by 5 folds to obtain final concentrations to be tested. […] DMSO in a final test concentration was not more than 0.2%, and DMSO at this concentration had no effect on the hERG potassium channel. The entire dilution process for compound preparation was performed using Bravo instrument.
(§4) Electrophysiological recording process: the processes of single-celled high-impedance sealing and whole-cell mode formation were all automatically completed by Qpatch instrument, under the whole-cell recording mode, the cells were clamped at -80 mV, before 5-second + 40 mV depolarization stimulus, the cells were given 50-millisecond - 50 mV pre-voltage, followed by repolarization to -50 mV for 5 seconds, and then returning to -80 mV. The voltage stimulus was given every 15 seconds, after 2 minutes of recording, extracellular fluid was recorded for 5 min, and then a drug was administrated, started from a lowest test concentration, each test concentration of the compound was given for 2.5 minutes, after all concentrations were given consecutively, a positive control compound Cisapride (3 µM) was given. At least 3 cells were tested for each concentration (n≥3).
(§5) Data processing: data analysis and processing were performed using GraphPad Prism 5.0 and Excel software. IC50 values of the compounds were calculated by fitting with the following equation using GraphPad Prism 5 software: Y = Bottom + (Top−Bottom)/(1+10^(∧)((LogIC50−X)*HillSlope)); [formula] where X is the Log value of the test sample concentration, Y is an inhibition percentage at a corresponding concentration, and Bottom and Top are the minimum and maximum inhibition percentages, respectively.

[3] = target: T1, hERG potassium ion channel
Protocol: as §1, §2, §3, §4, §5

[4] = In vivo brain-to-plasma ratio in mice; conditions: for Brain / Plasma: male mice, oral 10 mg/kg
Protocol: Evaluation of in vivo brain-to-plasma ratio of compound
Experimental purpose: to obtain the brain-to-plasma ratio of the compound
Experimental protocol: the brain-to-plasma ratio of the compound was investigated by monitoring the content of the compound in mouse brain and plasma.
Experimental procedure: the compound was weighed, followed by adding a small amount of DMSO and adding a sodium chloride solution for injection, to prepare a 10 mg · mL^-1 compound solution for administration. Male mice were orally administered at 10 mg · kg^-1, and whole plasma and whole brain tissue were sampled at 1 h and 6 h after administration (n=3). […] A centrifuge tube was weighed as M1, the centrifuge tube containing the whole brain tissue was weighed as M2, the centrifuge tube containing water for homogenization was weighed as M3, and the centrifuge tube after the removal of 30 µL homogenate was weighed as M4.
Standard curve range: 10-10,000 ng·mL^-1. Content of drug in brain = measured value × 0.03 × (M3−M1)/[(M2−M1)×(M3−M4)].

[5] = Pharmacokinetic evaluation in Balb/c mice; assay type: in vivo; conditions: mouse, in vivo, 5 mg/kg
Excerpt: 4. Pharmacokinetic evaluation of compounds in Balb/c mice
Experimental purpose: to understand pharmacokinetic properties of the compounds.
Experimental basis: Technical Guidelines for Nonclinical Pharmacokinetic Studies of Chemical Drugs, 2014.
Experimental protocol: the pharmacokinetic properties of the compounds were investigated via intravenous administration and intragastric administration in Balb/c mice.
The blood drug concentration was quantitatively analyzed by LC-MS/MS, and pharmacokinetic parameters were calculated, such as peak concentration (Cmax), area under the concentration-time curve (AUC(0-t)), half-life (T1/2), clearance (CL), volume of distribution at steady state (Vdss), and bioavailability (F).
The results of pharmacokinetic evaluation are shown in Table 5 below: Table 5 Pharmacokinetic test results of compounds in Balb/c mice

NLRP3 inflammasome = target: T2, NLRP3 inflammasome (Homo sapiens, UniProt Q96P20); assay: Inhibitory activity of NLRP3 inflammasome in human monocytes (THP-1 cells, LPS + Nigericin, IL-1β ELISA); assay type: cell-based
T2 construct: host or cells: THP-1 cells
Procedure, shortened: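 THP-1 cells differentiated overnight with 10 µM PMA at 37°C and 5% CO2, then primed 3 h with 1 µg/mL LPS in Opti-MEM. Compound applied for 40 min, followed by 40 min with 10 µM nigericin. IL-1β in supernatant measured by ELISA.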

[6] = In vivo distribution of cerebrospinal fluid and plasma; conditions: for concentration at 0.25 h / concentration at 2 h: male, iv, 5 mg/kg; for Cerebrospinal fluid / Plasma: intravenous 5 mg/kg, n=1
Protocol: Evaluation of in vivo distribution of cerebrospinal fluid and plasma after compound administration
Experimental procedure: the compound was weighed, followed by adding a small amount of DMSO and then adding a sodium chloride solution for injection, to prepare a 5 mg·mL^-1 compound solution for administration. […] Standard curve range: 1-1000 ng·mL^-1.

[7] = 50 mg/kg, First cage (6 mice for Compound 3, 5 mice for Compound 4)
[8] = 50 mg/kg, Second cage (6 mice for Compound 3, 5 mice for Compound 4)
[9] = male, mouse, brain/plasma, po, 10 mg/kg
[10] = male, mouse, plasma, po, 10 mg/kg
[11] = THP-1 cells, PMA, LPS 1 µg/mL 3 h, drug 40 min, Nigericin 10 µM 40 min, IL-1β ELISA, read-out: IC50
[12] = PO, Balb/c mice, read-out: AUC(0-t)
[13] = PO, Balb/c mice, read-out: Cmax
[14] = PO, Balb/c mice, read-out: T1/2 (converted)

T2 sequence (Q96P20 whole entry): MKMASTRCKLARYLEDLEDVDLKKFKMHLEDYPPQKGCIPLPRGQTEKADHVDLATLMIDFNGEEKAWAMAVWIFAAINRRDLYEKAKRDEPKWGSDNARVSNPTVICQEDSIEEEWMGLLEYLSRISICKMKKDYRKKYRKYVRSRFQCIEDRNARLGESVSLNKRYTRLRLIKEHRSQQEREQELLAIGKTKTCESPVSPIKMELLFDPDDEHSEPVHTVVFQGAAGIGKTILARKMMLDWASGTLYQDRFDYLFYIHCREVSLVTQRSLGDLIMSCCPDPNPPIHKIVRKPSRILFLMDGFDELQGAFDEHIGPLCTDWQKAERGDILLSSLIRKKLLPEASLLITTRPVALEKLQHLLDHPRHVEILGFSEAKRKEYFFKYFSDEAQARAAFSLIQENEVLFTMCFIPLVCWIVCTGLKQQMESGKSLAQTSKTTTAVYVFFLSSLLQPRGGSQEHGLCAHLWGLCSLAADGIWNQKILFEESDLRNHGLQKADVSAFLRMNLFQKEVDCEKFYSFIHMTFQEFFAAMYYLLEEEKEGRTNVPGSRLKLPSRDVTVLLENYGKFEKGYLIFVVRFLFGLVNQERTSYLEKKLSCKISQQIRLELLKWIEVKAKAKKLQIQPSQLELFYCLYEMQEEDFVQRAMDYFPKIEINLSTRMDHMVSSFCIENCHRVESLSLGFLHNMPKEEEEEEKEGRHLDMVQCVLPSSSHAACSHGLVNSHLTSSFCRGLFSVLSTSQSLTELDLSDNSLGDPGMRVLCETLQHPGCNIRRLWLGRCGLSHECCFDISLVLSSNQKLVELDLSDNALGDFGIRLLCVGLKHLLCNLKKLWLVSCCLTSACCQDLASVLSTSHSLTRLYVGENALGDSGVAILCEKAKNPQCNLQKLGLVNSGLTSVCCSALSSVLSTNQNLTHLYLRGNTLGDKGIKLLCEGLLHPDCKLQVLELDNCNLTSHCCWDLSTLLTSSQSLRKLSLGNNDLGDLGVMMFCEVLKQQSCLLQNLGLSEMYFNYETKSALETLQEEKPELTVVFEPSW
T1 sequence (Q12809 whole entry): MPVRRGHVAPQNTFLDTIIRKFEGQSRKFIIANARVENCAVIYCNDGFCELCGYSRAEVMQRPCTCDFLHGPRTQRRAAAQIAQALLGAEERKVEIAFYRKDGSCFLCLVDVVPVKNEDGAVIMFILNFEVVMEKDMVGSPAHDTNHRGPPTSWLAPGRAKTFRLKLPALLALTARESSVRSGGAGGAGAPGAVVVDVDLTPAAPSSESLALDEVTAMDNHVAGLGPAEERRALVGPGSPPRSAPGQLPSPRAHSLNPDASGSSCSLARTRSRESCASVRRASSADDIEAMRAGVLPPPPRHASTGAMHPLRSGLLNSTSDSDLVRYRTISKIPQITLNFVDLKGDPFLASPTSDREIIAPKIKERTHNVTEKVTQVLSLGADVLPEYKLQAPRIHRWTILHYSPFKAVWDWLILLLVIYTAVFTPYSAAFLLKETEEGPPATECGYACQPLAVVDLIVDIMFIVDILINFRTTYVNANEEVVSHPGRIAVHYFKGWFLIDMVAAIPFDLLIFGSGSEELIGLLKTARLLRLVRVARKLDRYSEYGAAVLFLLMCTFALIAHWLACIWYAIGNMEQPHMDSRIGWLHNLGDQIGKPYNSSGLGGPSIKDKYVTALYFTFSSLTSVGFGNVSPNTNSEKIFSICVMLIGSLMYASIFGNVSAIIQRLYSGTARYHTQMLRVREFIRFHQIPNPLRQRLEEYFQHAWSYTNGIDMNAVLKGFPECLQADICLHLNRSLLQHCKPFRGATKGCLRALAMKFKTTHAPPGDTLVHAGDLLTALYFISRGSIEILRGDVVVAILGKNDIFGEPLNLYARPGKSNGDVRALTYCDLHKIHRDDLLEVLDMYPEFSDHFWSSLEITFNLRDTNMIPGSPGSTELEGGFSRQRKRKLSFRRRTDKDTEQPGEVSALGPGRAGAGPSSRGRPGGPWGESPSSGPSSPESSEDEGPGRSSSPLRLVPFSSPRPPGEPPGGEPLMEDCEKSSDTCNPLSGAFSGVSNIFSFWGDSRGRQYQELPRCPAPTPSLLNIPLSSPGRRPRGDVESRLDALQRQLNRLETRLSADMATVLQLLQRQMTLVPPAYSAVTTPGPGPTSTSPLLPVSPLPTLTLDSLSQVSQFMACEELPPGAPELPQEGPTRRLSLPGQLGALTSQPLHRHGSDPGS

CC(C)(O)c1coc(S(=O)(=O)NC(=O)Nc2c3c(cc4c2CCC4)CCC3)c1 [MCC950, reference compound]
72h Survival rate (LPS-induced mice; 25 mg/kg oral): 60%
survival status of mice (mice alive) 12h (LPS-induced mice; 25 mg/kg, First cage (5 mice)): 5
survival status of mice (mice alive) 24h (LPS-induced mice; 25 mg/kg, First cage (5 mice)): 5
survival status of mice (mice alive) 36h (LPS-induced mice; 25 mg/kg, First cage (5 mice)): 4
survival status of mice (mice alive) 48h (LPS-induced mice; 25 mg/kg, First cage (5 mice)): 4
survival status of mice (mice alive) 72h (LPS-induced mice; 25 mg/kg, First cage (5 mice)): 4
survival status of mice (mice alive) 12h (LPS-induced mice; 25 mg/kg, Second cage (5 mice)): 5
survival status of mice (mice alive) 24h (LPS-induced mice; 25 mg/kg, Second cage (5 mice)): 4
survival status of mice (mice alive) 36h (LPS-induced mice; 25 mg/kg, Second cage (5 mice)): 4
survival status of mice (mice alive) 48h (LPS-induced mice; 25 mg/kg, Second cage (5 mice)): 2
survival status of mice (mice alive) 72h (LPS-induced mice; 25 mg/kg, Second cage (5 mice)): 2
IC50 [1]: 7.81 nM

CN1CCC[C@@H](Nc2nnc(-c3ccc4sccc4c3O)n(C)c2=O)C1 [Compound 4, (R)-3-(4-hydroxybenzo[b]thiophen-5-yl)-4-methyl-6-((1-methylpiperidin-3-yl)amino)-1,2,4-tr iazin-5(4H)-ketone]
20 uM Inhibition ratio [2]: 14.87%
72h Survival rate (LPS-induced mice; 25 mg/kg oral): 80%
survival status of mice (mice alive) 12h (LPS-induced mice; 25 mg/kg, First cage (5 mice)): 5
survival status of mice (mice alive) 24h (LPS-induced mice; 25 mg/kg, First cage (5 mice)): 5
survival status of mice (mice alive) 36h (LPS-induced mice; 25 mg/kg, First cage (5 mice)): 5
survival status of mice (mice alive) 48h (LPS-induced mice; 25 mg/kg, First cage (5 mice)): 5
survival status of mice (mice alive) 72h (LPS-induced mice; 25 mg/kg, First cage (5 mice)): 5
survival status of mice (mice alive) 12h (LPS-induced mice; 25 mg/kg, Second cage (5 mice)): 5
survival status of mice (mice alive) 24h (LPS-induced mice; 25 mg/kg, Second cage (5 mice)): 5
survival status of mice (mice alive) 36h (LPS-induced mice; 25 mg/kg, Second cage (5 mice)): 4
survival status of mice (mice alive) 48h (LPS-induced mice; 25 mg/kg, Second cage (5 mice)): 4
survival status of mice (mice alive) 72h (LPS-induced mice; 25 mg/kg, Second cage (5 mice)): 3
72h Survival rate (LPS-induced mice; 50 mg/kg oral): 100%
survival status of mice (mice alive) 12h (LPS-induced mice; [7]): 5
survival status of mice (mice alive) 24h (LPS-induced mice; [7]): 5
survival status of mice (mice alive) 36h (LPS-induced mice; [7]): 5
survival status of mice (mice alive) 48h (LPS-induced mice; [7]): 5
survival status of mice (mice alive) 72h (LPS-induced mice; [7]): 5
survival status of mice (mice alive) 12h (LPS-induced mice; [8]): 5
survival status of mice (mice alive) 24h (LPS-induced mice; [8]): 5
survival status of mice (mice alive) 36h (LPS-induced mice; [8]): 5
survival status of mice (mice alive) 48h (LPS-induced mice; [8]): 5
survival status of mice (mice alive) 72h (LPS-induced mice; [8]): 5
inhibitory effects on the hERG potassium ion channel (conclusion in words) ([3]; human): Conclusion: compounds 3, 4, 5, 9, 16, 17, 24, 30, 40, 41, 42, 43, 54 and others have weak inhibitory effects on the hERG potassium ion channel, having weaker inhibitory effect than the reference compound Ref-1.
Brain ([4]; 1 h): 1780 ng/g
Brain ([4]; 6 h): 335 ng/g
Kp at 1 h [4, 9]: 0.53
Kp at 6 h [4, 9]: 0.25
concentration at 1 h [4, 10]: 3340 ng/mL
concentration at 6 h [4, 10]: 1370 ng/mL
IC50 [1]: 1.42 nM
AUC(0-t) ([5]; male, Balb/c, po): 16900 ng·h/mL
Cmax ([5]; male, Balb/c, po): 4610 ng/mL
half-life ([5]; male, Balb/c, po): 3 h
IC50 (NLRP3 inflammasome; [11]): 4.21 nM

CCN1C[C@H](F)C[C@@H](Nc2nnc(-c3ccc4sccc4c3O)n(CC)c2=O)C1 [Compound 42, 4-ethyl-6-(((3R,5R)-1-ethyl-5-fluoropiperidin-3-yl)amino)-3-(4-hydroxybenzo[b]thiophen-5-y 1)-1,2,4-triazin-5(4H)-ketone]
20 uM Inhibition ratio [2]: 14.98%
inhibitory effects on the hERG potassium ion channel (conclusion in words) ([3]; human): Conclusion: compounds 3, 4, 5, 9, 16, 17, 24, 30, 40, 41, 42, 43, 54 and others have weak inhibitory effects on the hERG potassium ion channel, having weaker inhibitory effect than the reference compound Ref-1.
concentration at 0.25 h ([6]; mouse, cerebrospinal fluid): 35 ng/g
concentration at 2 h ([6]; mouse, cerebrospinal fluid): 1 ng/g
concentration at 0.25 h ([6]; mouse, plasma): 965 ng/mL
concentration at 2 h ([6]; mouse, plasma): 46 ng/mL
AUC(0-t) ([5]; male, Balb/c, po): 2500 ng·h/mL
Cmax ([5]; male, Balb/c, po): 2700 ng/mL
half-life ([5]; male, Balb/c, po): 1.61 h
IC50 (NLRP3 inflammasome; [11]): 4.76 nM

CCn1c(-c2ccc3sccc3c2O)nnc(N[C@@H]2CCCN(C)C2)c1=O [Compound 17, (R)-4-ethyl-3-(4-hydroxybenzo[b]thiophen-5-yl)-6-[(1-methylpiperidin-3-yl)amino]-1,2,4-tria zin-5(4H)-ketone]
20 uM Inhibition ratio [2]: 22.83%
inhibitory effects on the hERG potassium ion channel (conclusion in words) [3]: Conclusion: compounds 3, 4, 5, 9, 16, 17, 24, 30, 40, 41, 42, 43, 54 and others have weak inhibitory effects on the hERG potassium ion channel, having weaker inhibitory effect than the reference compound Ref-1.
Brain ([4]; 1 h): 745 ng/g
Plasma ([4]; 1 h): 5243 ng/mL
Brain ([4]; 6 h): 290 ng/g
Plasma ([4]; 6 h): 1872 ng/mL
Kp at 1 h ([4]; mouse, brain, po, 10 mg/kg): 0.14
Kp at 6 h ([4]; mouse, brain, po, 10 mg/kg): 0.16
Cerebrospinal fluid ([6]; 0.25h): 47 ng/g
Plasma ([6]; 0.25h): 713 ng/mL
Cerebrospinal fluid ([6]; 2h): 25 ng/g
Plasma ([6]; 2h): 590 ng/mL
AUC(0-t) [5, 12]: 17800 ng·h/mL
Cmax [5, 13]: 1850 ng/mL
half-life [5, 14]: 4.2 h
IC50 (NLRP3 inflammasome): 3.19 nM

CCn1c(-c2ccc3sccc3c2O)nnc(N[C@@H]2C[C@@H](F)CN(C)C2)c1=O [Compound 43, 4-ethyl-6-(((3R,5R)-5-fluoro-1-methylpiperidin-3-yl)amino)-3-(4-hydroxybenzo[b]thiophen-5-yl)-1,2,4-triazin-5(4H)-ketone]
20 uM Inhibition ratio [2]: 14.23%
inhibitory effects on the hERG potassium ion channel (conclusion in words) [3]: Conclusion: compounds 3, 4, 5, 9, 16, 17, 24, 30, 40, 41, 42, 43, 54 and others have weak inhibitory effects on the hERG potassium ion channel, having weaker inhibitory effect than the reference compound Ref-1.
Cerebrospinal fluid ([6]; 0.25h): 151 ng/g
Plasma ([6]; 0.25h): 6797 ng/mL
Cerebrospinal fluid ([6]; 2h): 40 ng/g
Plasma ([6]; 2h): 1911 ng/mL
distribution concentrations in cerebrospinal fluid / brain penetration potential (conclusion in words) ([6]; mouse, in vivo): Conclusion: some compounds of the present invention have good brain penetration potential, and particularly, compounds 40, 43 and others have high distribution concentrations in cerebrospinal fluid.
AUC(0-t) [5, 12]: 15700 ng·h/mL
Cmax [5, 13]: 5070 ng/mL
half-life [5, 14]: 2.25 h
IC50 (NLRP3 inflammasome): 5.66 nM

CCN1C[C@H](F)C[C@@H](Nc2nnc(-c3ccc4sccc4c3O)n(C)c2=O)C1 [Compound 41, 6-(((3R,5R)-1-ethyl-5-fluoropiperidin-3-yl)amino)-3-(4-hydroxybenzo[b]thiophen-5-yl)-4-me thyl-1,2,4-triazin-5(4H)-ketone]
20 uM Inhibition ratio [2]: 13.31%
72h Survival rate (LPS-induced mice; 25 mg/kg oral): 100%
survival status of mice (mice alive) 12h (LPS-induced mice; 25 mg/kg, First cage (5 mice)): 5
survival status of mice (mice alive) 24h (LPS-induced mice; 25 mg/kg, First cage (5 mice)): 5
survival status of mice (mice alive) 36h (LPS-induced mice; 25 mg/kg, First cage (5 mice)): 5
survival status of mice (mice alive) 48h (LPS-induced mice; 25 mg/kg, First cage (5 mice)): 5
survival status of mice (mice alive) 72h (LPS-induced mice; 25 mg/kg, First cage (5 mice)): 5
survival status of mice (mice alive) 12h (LPS-induced mice; 25 mg/kg, Second cage (5 mice)): 5
survival status of mice (mice alive) 24h (LPS-induced mice; 25 mg/kg, Second cage (5 mice)): 5
survival status of mice (mice alive) 36h (LPS-induced mice; 25 mg/kg, Second cage (5 mice)): 5
survival status of mice (mice alive) 48h (LPS-induced mice; 25 mg/kg, Second cage (5 mice)): 5
survival status of mice (mice alive) 72h (LPS-induced mice; 25 mg/kg, Second cage (5 mice)): 5
inhibitory effects on the hERG potassium ion channel (conclusion in words) [3]: Conclusion: compounds 3, 4, 5, 9, 16, 17, 24, 30, 40, 41, 42, 43, 54 and others have weak inhibitory effects on the hERG potassium ion channel, having weaker inhibitory effect than the reference compound Ref-1.
Cerebrospinal fluid ([6]; 0.25h): 67 ng/g
Plasma ([6]; 0.25h): 668 ng/mL
Cerebrospinal fluid ([6]; 2h): 1 ng/g
Plasma ([6]; 2h): 38 ng/mL
IC50 (NLRP3 inflammasome): 2.02 nM
